Data published in patent US20230406865A1, “CRYSTAL FORM OF FREE BASE OF INHIBITOR CONTAINING BICYCLIC RING DERIVATIVE AND PREPARATION METHOD AND APPLICATION OF CRYSTAL FORM” (SHANGHAI HANSOH BIOMEDICAL CO., LTD., priority 2020, published 2023).

How the values were obtained:
Ba/F3 KIF5B-RET cells = target: T1, Ba/F3 KIF5B-RET cells (Homo sapiens, UniProt P07949); test: Inhibition of proliferation of Ba/F3 KIF5B-RET cells (CellTiter-Glo); assay type: cell-based; conditions: 72 to 144 hours
T1 construct: fused on or other part: P33176 (Kinesin-1 heavy chain)
Experimental: When Ba/F3 KIF5B-RET cells were cultured to the appropriate cell density, cells were collected, and the cells were adjusted to the appropriate cell concentration using complete medium, and the cell suspension was spread in a 96-well plate, 90 μL per well, and placed in the wall of a 37° C., 5% CO2 incubator overnight; compound solutions of different concentrations were prepared using DMSO and culture medium; a solvent control was set, and the compound solution was added to a 96-well plate with […] at 37° C. in a 5% CO2 incubator for 72 to 144 hours, CellTiter-Glo solution was added thereto and mixed well by shaking, incubated for 10 minutes in the dark, and read by BioTek Synergy H1 microplate reader.
The IC50 values were obtained by using the luminescence signal values to calculate the inhibition rate, the concentrations and the inhibition rates were fitted to a nonlinear regression curve using Graphpad Prism software.

[1] = test system: TT cells (MTC, RET C634W); test: Inhibition of proliferation of TT cells (CellTiter-Glo, 72 h); assay type: cell-based; conditions: Homo sapiens
Experimental: TT cells were purchased from the cell bank of the Chinese Academy of Sciences.
When TT cells were cultured to the appropriate fusion level, TT cells were collected, and the cells were adjusted to the appropriate cell concentration using complete medium, and the cell suspension was spread in a 96-well plate, 90 μL per well, and placed to the wall of a 37° C., 5% CO2 incubator overnight; and compound solutions of different concentrations were prepared using DMSO and culture medium; and a solvent control was set, the compound solution was added to a 96-well plate, 10 μL per well, and placed to the wall of a 37° C., 5% CO2 incubator for 72 hours; CellTiter-Glo solution was added thereto and the mixture was mixed well by shaking, incubated for 10 minutes in the dark, and read by BioTek Synergy H1 microplate reader.
The IC50 values were obtained by using luminescence signal values to calculate the inhibition rate, the concentration and the inhibition rate were fitted to a nonlinear regression curve using Graphpad Prism software.

RET kinase = target: T2, RET kinase (Homo sapiens, UniProt P07949); test: HTRF kinase activity inhibition, RET wild-type; assay type: biochemical; conditions: ATP at Km
T2 construct: purchased Carna 08-159
Source text: 2.2 Experimental Reagents: • RET enzyme was purchased from Carna Company, and the article number was 08-159; • RET M918T enzyme was purchased from Carna Company, and the article number was 08-508; • KIF5B-RET was purchased from SignalChem Company, the article number was R02-19FG-05; • CCDC6-RET was purchased from SignalChem Company, the article number was R02-19BG-05; • RET V804M enzyme was purchased from Thermofisher Company, and the article number was PV6223; • RET V804L enzyme was purchased from Thermofisher Company, and the article number was PV4397; • HTRF KinEASE-TK kit was purchased from Cisbio Company, and the article number was 62TK0PEC; • ATP was purchased from Thermofisher Company, and the article number was PV3227; • 384-well plate was purchased from PerkinElmer Company, and the article number was 6007290.
In this experiment, a homogeneous time-resolved fluorescence (HTRF) method was used for the detection of compounds on RET kinase activity.

KDR kinase = target: T3, KDR kinase (Homo sapiens, UniProt P35968); test: HTRF kinase activity inhibition, KDR; assay type: biochemical; conditions: for IC50: HTRF, ATP at Km; for Ratio (KDR/RET): KDR IC50 / RET IC50
T3 construct: purchased Carna 08-191
Source text: 2.2 Experimental Reagents: • KDR kinase was purchased from Carna Company, and the article number was 08-191; • HTRF KinEASE-TK kit was purchased from Cisbio Company, and the article number was 62TK0PEC; • ATP was purchased from Thermofisher Company, and the article number was PV3227; • 384-well plate was purchased from PerkinElmer Company, and the article number was 6007290.
In this experiment, the homogeneous time-resolved fluorescence (HTRF) method was used for the detection of compounds on KDR kinase activity.

[2] = Balb/C mouse pharmacokinetics, oral 5 mg/kg; assay type: in vivo, Balb/C mice; conditions: male, p.o. 5 mg/kg, plasma; for MRT: read-out: Average residence time MRT; for Cmax: read-out: Blood concentration Cmax; for AUC(0-t): read-out: Curve area AUC0-t; for AUC(0-inf): read-out: Curve area AUC0-∞; for half-life: read-out: Half-life t1/2 (converted); for Tmax: read-out: Peak time tmax
Experimental: The pharmacokinetic behavior of the following compound embodiments, administered orally at a dose of 5 mg/kg in plasma in mice, was studied using Balb/C mice as test animals.
Balb/C Mouse 6/embodiment, male, Shanghai Jiesijie Laboratory Animal Co., Ltd, Animal Production License No. (SCXK (Shanghai) 2013-0006 N0.311620400001794).
Balb/C mice, males; p.o. after overnight fasting, respectively, at a dose of 5 mg/kg, administered in a volume of 10 mL/kg.
0.5% CMC-Na (1% Tween80) was dissolved by ultrasound, and prepared into clear solution or uniform suspension.
Before and after administration, 0.1 mL of blood was collected from mice at 0, 0.5, 1, 2, 4, 6, 8 and 24 hours by orbital collection, placed in EDTA-K2 tubes, centrifuged at 6000 rpm at 4° C. for 6 minutes to separate plasma, and stored at −80° C.
2.5 Sample Handling: • 1) 40 μL of plasma sample was precipitated by adding 160 μL of acetonitrile, mixed and centrifuged at 3500×g for 5-20 minutes. • 2) 100 μL of the supernatant solution after treatment was taken to analyze the concentration of the test compound by LC/MS/MS.
2.6 Liquid Phase Analysis • Liquid phase conditions: Shimadzu LC-20AD pump • Mass spectrometry conditions: AB Sciex API 4000 mass spectrometer • Chromatographic column: phenomenex Gemiu 5 μM C18 50×4.6 mm • Mobile phase: Liquid A was 0.1% formic acid aqueous solution, liquid B was acetonitrile • Flow rate: 0.8 mL/min • Elution time: 0-4.0 minutes, the eluent was as follows:
The main pharmacokinetic parameters were calculated by WinNonlin 6.1 and the results of the mouse pharmacokinetic experiments were shown in Table 13 below.

T1 sequence (P07949 whole entry, change not shown, the tested form may be a part): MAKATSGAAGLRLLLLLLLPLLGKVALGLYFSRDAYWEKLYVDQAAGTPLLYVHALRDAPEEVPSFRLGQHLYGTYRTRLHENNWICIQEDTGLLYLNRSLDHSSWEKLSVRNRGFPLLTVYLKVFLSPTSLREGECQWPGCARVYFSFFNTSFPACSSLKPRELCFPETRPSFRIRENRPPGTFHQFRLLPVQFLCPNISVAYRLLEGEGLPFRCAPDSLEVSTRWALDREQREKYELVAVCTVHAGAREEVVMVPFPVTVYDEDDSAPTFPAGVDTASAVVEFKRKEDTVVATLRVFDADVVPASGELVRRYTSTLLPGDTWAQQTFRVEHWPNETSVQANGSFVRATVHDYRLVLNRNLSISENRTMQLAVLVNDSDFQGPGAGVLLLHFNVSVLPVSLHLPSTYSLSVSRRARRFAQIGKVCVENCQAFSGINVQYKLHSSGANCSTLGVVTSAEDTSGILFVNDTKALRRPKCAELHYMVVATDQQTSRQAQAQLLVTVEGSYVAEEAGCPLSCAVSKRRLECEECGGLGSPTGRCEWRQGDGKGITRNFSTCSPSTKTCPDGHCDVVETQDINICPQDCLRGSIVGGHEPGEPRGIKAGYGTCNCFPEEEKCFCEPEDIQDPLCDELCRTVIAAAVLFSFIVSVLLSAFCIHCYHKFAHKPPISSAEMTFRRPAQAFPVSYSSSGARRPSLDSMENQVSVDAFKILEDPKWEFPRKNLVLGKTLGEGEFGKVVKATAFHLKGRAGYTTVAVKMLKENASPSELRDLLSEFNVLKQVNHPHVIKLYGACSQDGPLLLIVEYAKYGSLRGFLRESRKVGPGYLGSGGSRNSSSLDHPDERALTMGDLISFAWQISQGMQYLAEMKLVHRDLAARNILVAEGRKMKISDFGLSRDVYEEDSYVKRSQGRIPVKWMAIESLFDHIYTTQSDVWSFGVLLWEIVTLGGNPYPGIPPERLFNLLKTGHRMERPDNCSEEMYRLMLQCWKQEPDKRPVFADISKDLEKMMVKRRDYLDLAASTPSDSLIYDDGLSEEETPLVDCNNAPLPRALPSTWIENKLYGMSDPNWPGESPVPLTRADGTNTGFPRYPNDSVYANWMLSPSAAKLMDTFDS
T2 sequence (P07949 29-1114): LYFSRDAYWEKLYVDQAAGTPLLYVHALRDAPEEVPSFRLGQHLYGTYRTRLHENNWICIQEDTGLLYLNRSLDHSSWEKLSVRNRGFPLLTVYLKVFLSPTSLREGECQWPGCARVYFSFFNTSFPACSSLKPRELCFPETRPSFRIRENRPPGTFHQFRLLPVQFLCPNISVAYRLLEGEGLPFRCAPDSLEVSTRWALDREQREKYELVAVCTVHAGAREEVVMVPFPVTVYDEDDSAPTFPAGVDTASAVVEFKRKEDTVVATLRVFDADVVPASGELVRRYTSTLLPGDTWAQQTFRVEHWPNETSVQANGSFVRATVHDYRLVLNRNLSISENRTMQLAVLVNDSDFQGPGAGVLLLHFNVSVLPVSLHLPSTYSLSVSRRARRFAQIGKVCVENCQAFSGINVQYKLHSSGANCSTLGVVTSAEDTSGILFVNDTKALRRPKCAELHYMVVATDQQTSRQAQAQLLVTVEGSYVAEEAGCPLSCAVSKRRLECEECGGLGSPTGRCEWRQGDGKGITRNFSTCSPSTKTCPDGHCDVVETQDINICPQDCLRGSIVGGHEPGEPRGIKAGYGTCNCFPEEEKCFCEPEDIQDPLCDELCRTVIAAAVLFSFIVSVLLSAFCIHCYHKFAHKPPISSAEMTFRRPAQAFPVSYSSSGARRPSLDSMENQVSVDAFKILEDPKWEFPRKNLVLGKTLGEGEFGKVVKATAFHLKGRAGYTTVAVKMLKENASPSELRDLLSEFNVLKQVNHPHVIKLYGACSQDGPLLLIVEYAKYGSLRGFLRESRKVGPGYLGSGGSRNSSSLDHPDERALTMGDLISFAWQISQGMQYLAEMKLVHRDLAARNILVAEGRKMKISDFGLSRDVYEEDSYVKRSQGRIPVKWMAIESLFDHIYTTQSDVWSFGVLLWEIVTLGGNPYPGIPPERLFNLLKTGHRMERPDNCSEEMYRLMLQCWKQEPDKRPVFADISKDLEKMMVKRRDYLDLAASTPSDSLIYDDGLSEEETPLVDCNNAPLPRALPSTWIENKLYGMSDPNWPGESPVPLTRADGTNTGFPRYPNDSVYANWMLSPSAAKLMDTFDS
T3 sequence (P35968 20-1356): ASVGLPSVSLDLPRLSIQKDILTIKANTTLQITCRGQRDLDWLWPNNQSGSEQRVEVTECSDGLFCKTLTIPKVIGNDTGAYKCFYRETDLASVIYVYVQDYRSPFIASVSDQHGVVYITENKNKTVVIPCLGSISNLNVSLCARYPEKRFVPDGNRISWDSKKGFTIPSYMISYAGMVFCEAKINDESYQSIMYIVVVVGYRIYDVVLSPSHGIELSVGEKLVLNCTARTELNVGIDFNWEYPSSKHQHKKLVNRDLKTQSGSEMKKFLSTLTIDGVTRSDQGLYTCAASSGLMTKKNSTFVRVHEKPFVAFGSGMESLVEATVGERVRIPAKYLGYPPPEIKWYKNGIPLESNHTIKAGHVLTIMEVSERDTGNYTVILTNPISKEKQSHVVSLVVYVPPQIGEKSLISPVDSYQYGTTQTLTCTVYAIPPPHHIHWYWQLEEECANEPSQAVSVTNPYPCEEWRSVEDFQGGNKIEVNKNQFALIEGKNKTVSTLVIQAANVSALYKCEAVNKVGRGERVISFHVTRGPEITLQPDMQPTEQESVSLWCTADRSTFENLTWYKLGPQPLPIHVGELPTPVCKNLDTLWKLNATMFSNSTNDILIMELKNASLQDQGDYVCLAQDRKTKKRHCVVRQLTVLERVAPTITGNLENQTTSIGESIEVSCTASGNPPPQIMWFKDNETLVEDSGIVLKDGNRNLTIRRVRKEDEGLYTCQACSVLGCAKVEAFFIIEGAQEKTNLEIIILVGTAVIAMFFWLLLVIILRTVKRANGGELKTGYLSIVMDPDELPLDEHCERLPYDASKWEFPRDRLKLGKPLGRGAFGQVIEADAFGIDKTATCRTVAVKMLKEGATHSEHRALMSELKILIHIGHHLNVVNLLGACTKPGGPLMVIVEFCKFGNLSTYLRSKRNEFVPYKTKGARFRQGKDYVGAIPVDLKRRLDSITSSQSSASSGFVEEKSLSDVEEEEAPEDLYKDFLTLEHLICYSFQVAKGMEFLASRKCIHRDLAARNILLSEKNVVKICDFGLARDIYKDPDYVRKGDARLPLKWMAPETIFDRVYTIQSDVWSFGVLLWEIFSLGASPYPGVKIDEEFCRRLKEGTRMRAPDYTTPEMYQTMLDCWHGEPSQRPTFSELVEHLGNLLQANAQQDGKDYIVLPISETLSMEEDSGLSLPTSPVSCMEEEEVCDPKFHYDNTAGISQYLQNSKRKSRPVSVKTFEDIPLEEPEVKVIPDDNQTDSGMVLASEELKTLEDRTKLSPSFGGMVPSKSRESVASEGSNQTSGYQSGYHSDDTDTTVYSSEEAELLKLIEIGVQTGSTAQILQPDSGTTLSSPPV

SMILES	IC50 (Ba/F3 KIF5B-RET cells) [nM]	IC50 [1] [nM]	IC50 (RET kinase) [nM]	IC50 (KDR kinase) [nM]	Ratio (KDR/RET) (KDR kinase)	other results
COc1ncc(CN2C3CC2CN(c2ccc(-c4cc(N5CC(C)(C#N)C5)cn5ncc(C#N)c45)cn2)C3)cc1F [Embodiment 76, 6-(3-Cyano-3-methylazetidin-1-yl)-4-(6-(6-((5-fluoro-6-methoxypyridin-3-yl)methyl)-3,6-diazabicyclo[3.1.1]heptan-3-yl)pyridin-3-yl)pyrazolo[1,5-a]pyridine-3-carbonitrile]	6.04	3.48				
COc1ccc(CN2C3CC2CN(c2ccc(-c4cc(C#CC5(O)CCC5)cn5ncc(C#N)c45)cn2)C3)cn1 [Embodiment 82, 6-((1-Hydroxycyclobutyl)ethynyl)-4-(6-(6-((6-methoxypyridin-3-yl)methyl)-3,6-diazabicyclo[3.1.1]heptan-3-yl)pyridin-3-yl)pyrazolo[1,5-a]pyridine-3-carbonitrile]	21.9	17.8				
COc1ccc(CN2C3CC2CN(c2ccc(-c4cc(OCC56CC(CO)(C5)C6)cn5ncc(C#N)c45)cn2)C3)cn1 [Embodiment 45, 6-((3-(Hydroxymethyl)bicyclo[1.1.1]pentan-1-yl)methoxy)-4-(6-(6-((6-methoxypyridin-3-yl)methyl)-3,6-diazabicyclo[3.1.1]heptan-3-yl)pyridin-3-yl)pyrazolo[1,5-a]pyridine-3-carbonitrile]	7.06	9.17				
COCC(C)(O)C#Cc1cc(-c2ccc(N3CC4CC(C3)N4Cc3cnc(OC)c(F)c3)nc2)c2c(C#N)cnn2c1 (stereo not shown) [Embodiment 61, 4-(6-(6-((5-Fluoro-6-methoxypyridin-3-yl)methyl)-3,6-diazabicyclo[3.1.1]heptan-3-yl)pyridin-3-yl)-6-(3-hydroxy-4-methoxy-3-methylbut-1-yn-1-yl)pyrazolo[1,5-a]pyridine-3-carbonitrile]	16.8		0.35	11.2	32	
COc1ccc(CN2C3CC2CN(c2ccc(-c4cc(OCC5(C#N)CC5)cn5ncc(C#N)c45)cn2)C3)cn1 [Embodiment 27, 6-((1-Cyanocyclopropyl)methoxy)-4-(6-(6-((6-methoxypyridin-3-yl)methyl)-3,6-diazabicyclo[3.1.1]heptan-3-yl)pyridin-3-yl)pyrazolo[1,5-a]pyridine-3-carbonitrile]	15.9		0.32	88	280	
COc1ccc(CN2C3CC2CN(c2ccc(-c4cc(C#CC(O)C5CC5)cn5ncc(C#N)c45)cn2)C3)cn1 (stereo not shown) [Embodiment 19, 6-(3-Cyclopropyl-3-hydroxyprop-1-yn-1-yl)-4-(6-(6-((6-methoxypyridin-3-yl)methyl)-3,6-diazabicyclo[3.1.1]heptan-3-yl)pyridin-3-yl)pyrazolo[1,5-a]pyridine-3-carbonitrile]	27.8					
COc1ncc(CN2C3CC2CN(c2ccc(-c4cc(OCC56CC(CO)(C5)C6)cn5ncc(C#N)c45)cn2)C3)cc1F [Embodiment 71, 4-(6-(6-((5-Fluoro-6-methoxypyridin-3-yl)methyl)-3,6-diazabicyclo[3.1.1]heptan-3-yl)pyridin-3-yl)-6-((3-(hydroxymethyl)bicyclo[1.1.1]pentan-1-yl)methoxy)pyrazolo[1,5-a]pyridine-3-carbonitrile]	5.59	8.65				
Cc1ccc(F)cc1C(=O)NC1(C)CCN(c2ccc(-c3cc(C#CC(C)(C)N)cn4ncc(C#N)c34)cn2)CC1 [Embodiment 87, N-(1-(5-(6-(3-amino-3-methylbut-1-yn-1-yl)-3-cyanopyrazolo[1,5-a]pyridin-4-yl)pyridin-2-yl)-4-methylpiperidin-4-yl)-5-fluoro-2-methylbenzamide]	18.5	23.6				
COc1ccc(CN2C3CC2CN(c2ccc(-c4cc(OCC5(C#N)CCOCC5)cn5ncc(C#N)c45)cn2)C3)cn1 [Embodiment 59, 6-((4-Cyanotetrahydro-2H-pyran-4-yl)methoxy)-4-(6-(6-((6-methoxypyridin-3-yl)methyl)-3,6-diazabicyclo[3.1.1]heptan-3-yl)pyridin-3-yl)pyrazolo[1,5-a]pyridine-3-carbonitrile]	34		0.58	184	317	MRT [2]: 4.27 h; Cmax [2]: 1330 ng/mL; AUC(0-t) [2]: 7340 ng·h/mL; AUC(0-inf) [2]: 7370 ng·h/mL; half-life [2]: 2.34 h; Tmax [2]: 0.5 h
COc1ncc(CN2C3CC2CN(c2ccc(-c4cc(C#CC5(O)COC5)cn5ncc(C#N)c45)cn2)C3)cc1F [Embodiment 81, 4-(6-(6-((5-Fluoro-6-methoxypyridin-3-yl)methyl)-3,6-diazabicyclo[3.1.1]heptan-3-yl)pyridin-3-yl)-6-((3-hydroxyoxetan-3-yl)ethynyl)pyrazolo[1,5-a]pyridine-3-carbonitrile]	16.8	13.8				
COc1ccc(CN2C3CC2CN(c2ccc(-c4cc(C#CC5(O)CCOCC5)cn5ncc(C#N)c45)cn2)C3)cn1 [Embodiment 78, 6-((4-Hydroxytetrahydro-2H-pyran-4-yl)ethynyl)-4-(6-(6-((6-methoxypyridin-3-yl)methyl)-3,6-diazabicyclo[3.1.1]heptan-3-yl)pyridin-3-yl)pyrazolo[1,5-a]pyridine-3-carbonitrile]	15.6	13.9				
COc1ncc(CN2C3CC2CN(c2ccc(-c4cc(C#C[C@@H](C)O)cn5ncc(C#N)c45)cn2)C3)cc1F [Embodiment 68, 4-(6-(6-((5-Fluoro-6-methoxypyridin-3-yl)methyl)-3,6-diazabicyclo[3.1.1]heptan-3-yl)pyridin-3-yl)-6-((R)-3-hydroxybut-1-yn-1-yl)pyrazolo[1,5-a]pyridine-3-carbonitrile]	26.3		0.44	18.9	43	MRT [2]: 3.47 h; Cmax [2]: 1700 ng/mL; AUC(0-t) [2]: 7210 ng·h/mL; AUC(0-inf) [2]: 7220 ng·h/mL; half-life [2]: 1.73 h; Tmax [2]: 0.5 h
